Experimental data published in patent publication US12583870B2, “Azaheteroaryl compound and application thereof” (SHANGHAI BLUERAY BIOPHARMA CO., LTD., priority 2019, dated 2026).

Experiments:
KARPAS-422 cells = test: Cell proliferation analysis, KARPAS-422, 13 days, CellTiter-Glo; format: cell-based; conditions: Homo sapiens, 312 h
In short: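 KARPAS-422 cells were treated with PRC2 inhibitors over 9 three-fold dilutions from 10 μM top (0.5% DMSO, duplicates) in RPMI-1640 with 15% FBS at 37 °C. Every 3–4 days cells were counted and reseeded at 1×10^4/well with fresh compound. Viability was read by CellTiter-Glo luminescence on day 13.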

[1] = test system: trimethylation level of histone H3K27 in G401 cells; test: ELISA (H3K27 trimethylation) analysis in G401 cells; format: cell-based; conditions: Homo sapiens, G-401, 72 hours, H3K27me3 standardized to H3
In short: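 Cells exposed 72 h to 10-point 3-fold dilutions, top 10 μM, 0.5% final DMSO. Acid-extracted histones assayed by ELISA (ECL) for H3K27me3, normalized to total H3 and to DMSO control; IC50 from dose-response fit.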

[2] = target: T1, EED protein (His6-tagged full-length) binding to H3K27me3 polypeptide (Homo sapiens, UniProt O75530); test: AlphaScreen evaluation of blocking the binding of EED to H3K27Me3; conditions: EED 60 nM, biotinylated H3K27me3 75 nM, 30 minutes incubation
T1 construct: His6-tagged full-length EED protein (441 amino acids)
T1 sequence (O75530 whole entry): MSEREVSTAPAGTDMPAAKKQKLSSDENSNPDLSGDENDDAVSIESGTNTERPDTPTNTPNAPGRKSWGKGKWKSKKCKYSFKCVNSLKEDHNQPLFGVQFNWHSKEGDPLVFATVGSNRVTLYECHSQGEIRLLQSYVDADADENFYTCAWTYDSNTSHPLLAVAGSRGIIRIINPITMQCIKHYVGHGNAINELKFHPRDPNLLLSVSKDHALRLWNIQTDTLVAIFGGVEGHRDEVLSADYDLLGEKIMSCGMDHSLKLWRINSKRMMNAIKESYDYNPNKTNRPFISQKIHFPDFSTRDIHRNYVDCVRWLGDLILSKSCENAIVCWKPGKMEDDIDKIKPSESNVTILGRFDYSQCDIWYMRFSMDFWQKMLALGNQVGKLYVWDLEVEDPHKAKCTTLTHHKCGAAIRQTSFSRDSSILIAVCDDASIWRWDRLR
Protocol: Firstly, compound solutions of different concentration gradients were prepared. Compound powder was dissolved in DMSO to prepare a mother liquor. 1.5 μl of the mother liquor of the compound was taken and added into 198.5 μl of a reaction buffer (25 mM HEPES (pH 8.0), 50 mM NaCl, 0.015% Tween 20, 0.5% BSA). The mixture was mixed uniformly. Then a 3-fold series dilution was carried out with the above-mentioned buffer containing 0.75% DMSO. 9 different test concentrations were provided for one same compound. 5 μL of compounds of different concentration gradients were taken and added into the ProxiPlate-384 Plus, White detection plate (PerkinElmer, 6008280) and two replicates in parallel were provided for each concentration gradient.
Secondly, a reaction for blocking the binding was carried out. The above-mentioned buffer was used to dilute His6-tagged full-length EED protein (441 amino acids) to 60 nM and biotinylated polypeptide fragment H3K27me3 (amino acids at positions 19-33) (Biotinylated-H3K27me3) to 75 nM. 5 μl of the polypeptide fragment at the concentration of 75 nM and 5 µl of the protein at the concentration of 60 nM were transferred to the detection wells containing the compound, respectively. The detection plate was sealed with the film and incubation was carried out at room temperature for 30 minutes.
Finally, the detection was carried out with the AlphaScreen method. Prior use, nickel chelate receptor beads and streptavidin donor beads (at the ratio of 1:1, Perkin Elmer, product number 6760619M) were mixed with the above-mentioned reaction buffer. Then 5 μl of the above-mentioned pre-mixed detection solution was added to each of the detection wells. The donor beads and receptor beads were both at a final concentration of 5 μg/mL. The detection plate was covered and sealed with tinfoil and placed in the dark at room temperature for 1 hour. The signal was read using the AlphaScreen detector on the Spectra max i3. AlphaScreen signals were standardlized based on the readings obtained from positive controls (maximum signal controls) and negative controls (minimum signal controls) to give the inhibition rates for compounds at different concentrations, and afterwards non-linear regression analysis was carried out using GraphPad Prism 5, inhibition curves were made based on the Dose-Response equation of Y=Bottom+(Top−Bottom)/(1+10^((Log IC50−X)*HillSlope)) and the IC50 values of each compound were obtained. […]

| IC50 (KARPAS-422 cells) [µM] | IC50 [1] [µM] | IC50 [2] [µM] | SMILES |
| --- | --- | --- | --- |
| 0.097 | 0.078 | 0.123 | O=S1(=O)C=C(F)c2cc(-c3cnc(NCc4c(F)ccc5c4[C@H]4C[C@H]4O5)n4cnnc34)ccc21 [3-fluoro-5-(5-((((1aR,6bR)-5-fluoro-1a,6b-dihydro-1H-cyclopropa[b]benzofuran-6-yl)methyl)amino)-[1,2,4]triazolo[4,3-c]pyrimidin-8-yl)benzo[b]thiophene 1,1-dioxide] |
| 0.0042 | 0.0036 | 0.0122 | CC1=Cc2c(-c3cnc(NCc4c(F)ccc5c4CCO5)n4cnnc34)cccc2S1(=O)=O [4-(5-(((5-fluoro-2,3-dihydrobenzofuran-4-yl)methyl)amino)-[1,2,4]triazolo[4,3-c]pyrimidin-8-yl)-2-methylbenzo[b]thiophene 1,1-dioxide] |
| 0.013 | 0.021 | 0.01 | O=S1(=O)C=Cc2c(-c3cnc(NCc4c(F)ccc5c4CCO5)n4cnnc34)cccc21 [4-(5-(((5-fluoro-2,3-dihydrobenzofuran-4-yl)methyl)amino)-[1,2,4]triazolo[4,3-c]pyrimidin-8-yl)benzo[b]thiophene 1,1-dioxide] |
| 0.0115 | 0.0092 | 0.0044 | O=S1(=O)C=Cc2c(-c3cnc(NCc4c(F)ccc5c4[C@H]4C[C@H]4O5)n4cnnc34)cccc21 [4-(5-((((1aR,6bR)-5-fluoro-1a,6b-dihydro-1H-cyclopropa[b]benzofuran-6-yl)methyl)amino)-[1,2,4]triazolo[4,3-c]pyrimidin-8-yl)benzo[b]thiophene 1,1-dioxide] |
| 0.0005 | 0.0009 | 0.0041 | Cc1cc2c(cc1-c1cnc(NCc3c(F)ccc4c3CCO4)n3cnnc13)C=CS2(=O)=O [5-(5-(((5-fluoro-2,3-dihydrobenzofuran-4-yl)methyl)amino)-[1,2,4]triazolo[4,3-c]pyrimidin-8-yl)-6-methylbenzo[b]thiophene 1,1-dioxide] |
| 0.0007 | 0.0021 | 0.0049 | O=S1(=O)C=Cc2cc(-c3cnc(NCc4c(F)ccc5c4CCO5)n4cnnc34)ccc21 [5-(5-(((5-fluoro-2,3-dihydrobenzofuran-4-yl)methyl)amino)-[1,2,4]triazolo[4,3-c]pyrimidin-8-yl)benzo[b]thiophene 1,1-dioxide] |
| 0.0004 | 0.0003 | 0.0049 | O=S1(=O)C=c2ccc(-c3cnc(NCc4c(F)ccc5c4CCO5)n4cnnc34)cc2=C1 [5-(5-(((5-fluoro-2,3-dihydrobenzofuran-4-yl)methyl)amino)-[1,2,4]triazolo[4,3-c]pyrimidin-8-yl)benzo[c]thiophene 2,2-dioxide] |
| 0.0016 | 0.002 | 0.0064 | O=S1(=O)C=c2ccc(-c3cnc(NCc4c(F)ccc5c4CCCO5)n4cnnc34)cc2=C1 [5-(5-(((6-fluorochroman-5-yl)methyl)amino)-[1,2,4]triazolo[4,3-c]pyrimidin-8-yl)benzo[c]thiophene 2,2-dioxide] |
| 0.0125 | 0.0041 | 0.0049 | CC1=Cc2cc(-c3cnc(NCc4c(F)ccc5c4[C@H]4C[C@H]4O5)n4cnnc34)ccc2S1(=O)=O [5-(5-((((1aR,6bR)-5-fluoro-1a,6b-dihydro-1H-cyclopropa[b]benzofuran-6-yl)methyl)amino)-[1,2,4]triazolo[4,3-c]pyrimidin-8-yl)-2-methylbenzo[b]thiophene 1,1-dioxide] |
| 0.0243 | 0.0136 | 0.0049 | CC1=CS(=O)(=O)c2ccc(-c3cnc(NCc4c(F)ccc5c4[C@H]4C[C@H]4O5)n4cnnc34)cc21 [5-(5-((((1aR,6bR)-5-fluoro-1a,6b-dihydro-1H-cyclopropa[b]benzofuran-6-yl)methyl)amino)-[1,2,4]triazolo[4,3-c]pyrimidin-8-yl)-3-methylbenzo[b]thiophene 1,1-dioxide] |
| 0.0007 | 0.0008 | 0.0038 | O=S1(=O)C=Cc2cc(-c3cnc(NCc4c(F)ccc5c4[C@H]4C[C@H]4O5)n4cnnc34)ccc21 [5-(5-((((1aR,6bR)-5-fluoro-1a,6b-dihydro-1H-cyclopropa[b]benzofuran-6-yl)methyl)amino)-[1,2,4]triazolo[4,3-c]pyrimidin-8-yl)benzo[b]thiophene 1,1-dioxide] |
| 0.0008 | 0.0006 | 0.0063 | O=S1(=O)C=c2ccc(-c3cnc(NCc4c(F)ccc5c4[C@H]4C[C@H]4O5)n4cnnc34)cc2=C1 [5-(5-((((1aR,6bR)-5-fluoro-1a,6b-dihydro-1H-cyclopropa[b]benzofuran-6-yl)methyl)amino)-[1,2,4]triazolo[4,3-c]pyrimidin-8-yl)benzo[c]thiophene 2,2-dioxide] |
| 0.0038 | 0.016 | 0.015 | O=S1(=O)C=Cc2cc(-c3cnc(NCc4c(F)ccc5c4[C@@H]4C[C@@H]4O5)n4cnnc34)ccc21 [5-(5-((((1aS,6bS)-5-fluoro-1a,6b-dihydro-1H-cyclopropa[b]benzofuran-6-yl)methyl)amino)-[1,2,4]triazolo[4,3-c]pyrimidin-8-yl)benzo[b]thiophene 1,1-dioxide] |
| 0.0088 | 0.0079 | 0.0027 | CC1=Cc2ccc(-c3cnc(NCc4c(F)ccc5c4CCO5)n4cnnc34)cc2S1(=O)=O [6-(5-(((5-fluoro-2,3-dihydrobenzofuran-4-yl)methyl)amino)-[1,2,4]triazolo[4,3-c]pyrimidin-8-yl)-2-methylbenzo[b]thiophene 1,1-dioxide] |
| 0.0087 | 0.014 | 0.002 | CC1=C(C)S(=O)(=O)c2c(F)cc(-c3cnc(NCc4c(F)ccc5c4CCO5)n4cnnc34)cc21 [7-fluoro-5-(5-(((5-fluoro-2,3-dihydrobenzofuran-4-yl)methyl)amino)-[1,2,4]triazolo[4,3-c]pyrimidin-8-yl)-2,3-dimethylbenzo[b]thiophene 1,1-dioxide] |
| 0.0005 | 0.0028 | 0.0045 | O=S1(=O)C=Cc2cc(-c3cnc(NCc4c(F)ccc5c4CCO5)n4cnnc34)cc(F)c21 [7-fluoro-5-(5-(((5-fluoro-2,3-dihydrobenzofuran-4-yl)methyl)amino)-[1,2,4]triazolo[4,3-c]pyrimidin-8-yl)benzo[b]thiophene 1,1-dioxide] |
| 0.0019 | 0.0027 | 0.0051 | Cc1ccc(-c2cnc(NCc3c(F)ccc4c3CCO4)n3cnnc23)c2ncc(C)n12 [8-(3,5-dimethylimidazo[1,2-a]pyridin-8-yl)-N-((5-fluoro-2,3-dihydrobenzofuran-4-yl)methyl)-[1,2,4]triazolo[4,3-c]pyrimidin-5-amine] |
| 0.0075 | 0.0077 | 0.0052 | Fc1cc(-c2cnc(NCc3c(F)ccc4c3CCO4)n3cnnc23)c2ncc(F)n2c1 [8-(3,6-difluoroimidazo[1,2-a]pyridin-8-yl)-N-((5-fluoro-2,3-dihydrobenzofuran-4-yl)methyl)-[1,2,4]triazolo[4,3-c]pyrimidin-5-amine] |
| 0.0022 | 0.0025 | 0.003 | CCc1cnc2c(-c3cnc(NCc4c(F)ccc5c4CCO5)n4cnnc34)ccc(C)n12 [8-(3-ethyl-5-methylimidazo[1,2-a]pyridin-8-yl)-N-((5-fluoro-2,3-dihydrobenzofuran-4-yl)methyl)-[1,2,4]triazolo[4,3-c]pyrimidin-5-amine] |
| 0.0009 | 0.0009 | 0.0025 | CCc1cnc2c(-c3cnc(NCc4c(F)ccc5c4CCO5)n4cnnc34)cccn12 [8-(3-ethylimidazo[1,2-a]pyridin-8-yl)-N-((5-fluoro-2,3-dihydrobenzofuran-4-yl)methyl)-[1,2,4]triazolo[4,3-c]pyrimidin-5-amine] |
| 0.0036 | 0.0045 | 0.0012 | Fc1ccc2c(c1CNc1ncc(-c3cccn4c(Cc5ccccc5)cnc34)c3nncn13)CCO2 [8-(3-phenylmethylimidazo[1,2-a]pyridin-8-yl)-N-((5-fluoro-2,3-dihydrobenzofuran-4-yl)methyl)-[1,2,4]triazolo[4,3-c]pyrimidin-5-amine] |
